From patent publication US11492348B2, “Tri-substituted aryl and heteroaryl derivatives as modulators of PI3-kinase and autophagy pathways” (Neuropore Therapies, Inc., priority 2018, dated 2022)

Target: PI3Kα (Homo sapiens (Human), UniProt P42336)
Experiment: Inhibition of PI3Kα (ADP-Glo kinase activity assay, ATP to ADP conversion)
Assay type: biochemical
Conditions: 25 μM PIP2:PS, 60 μM ATP, 30 min reaction, luminescence
Method: Quantification of ATP to ADP conversion as a measure of PI3Kα activity. Active PI3Kα (Life Technologies), in the presence or absence of PI3Kα inhibitor, was reacted with PIP2:PS (Life Technologies), a substrate specifically optimized for use with Class I PI3 kinases, and ultrapure ATP (Promega). The conversion of ATP to ADP by PI3Kα was measured as luminescence signal via Promega ADP-Glo kinase activity assay. Assay was validated using published PI3Kα inhibitors LY294002, PI-103, BYL719, GDC0198 and also DMSO vehicle control.
Compounds were prepared at 100× final concentration as a 12-point, 1:3 serial-dilution in DMSO series, with DMSO control as 12th point. Compound was then diluted in (25 mM HEPES pH 7.5, 1 mM EGTA, 0.3% CHAPS) prior to addition to PI3Kα. Active PI3Kα diluted to 0.24 ng/μL (1.1 nM) in (50 mM HEPES pH 7.5, 6 mM MgCl2, 1 mM EGTA, 200 mM NaCl, 0.03% CHAPS, 8 mM DTT) was incubated with compound for 0 hr and 3 hr prior to the start of the reaction. 25 μM PIP2:PS and 60 μM ATP were diluted from stock in (25 mM HEPES pH 7.5, 1 mM EGTA, 0.3% CHAPS) and added to initiate the PI3Kα reaction. Reaction time was 30 minutes. ATP to ADP conversion was measured in Luminescence Counts on DTX880 Plate Reader (Beckman Coulter). Compound IC50s were reported using GraphPad Prism software. Analytical method was non-linear regression, 4-parameter curve fit with bottom fit to validated PI3Kα inhibitor reference controls and no top fit (floating top).

PI3Kα, sequence (P42336 whole entry): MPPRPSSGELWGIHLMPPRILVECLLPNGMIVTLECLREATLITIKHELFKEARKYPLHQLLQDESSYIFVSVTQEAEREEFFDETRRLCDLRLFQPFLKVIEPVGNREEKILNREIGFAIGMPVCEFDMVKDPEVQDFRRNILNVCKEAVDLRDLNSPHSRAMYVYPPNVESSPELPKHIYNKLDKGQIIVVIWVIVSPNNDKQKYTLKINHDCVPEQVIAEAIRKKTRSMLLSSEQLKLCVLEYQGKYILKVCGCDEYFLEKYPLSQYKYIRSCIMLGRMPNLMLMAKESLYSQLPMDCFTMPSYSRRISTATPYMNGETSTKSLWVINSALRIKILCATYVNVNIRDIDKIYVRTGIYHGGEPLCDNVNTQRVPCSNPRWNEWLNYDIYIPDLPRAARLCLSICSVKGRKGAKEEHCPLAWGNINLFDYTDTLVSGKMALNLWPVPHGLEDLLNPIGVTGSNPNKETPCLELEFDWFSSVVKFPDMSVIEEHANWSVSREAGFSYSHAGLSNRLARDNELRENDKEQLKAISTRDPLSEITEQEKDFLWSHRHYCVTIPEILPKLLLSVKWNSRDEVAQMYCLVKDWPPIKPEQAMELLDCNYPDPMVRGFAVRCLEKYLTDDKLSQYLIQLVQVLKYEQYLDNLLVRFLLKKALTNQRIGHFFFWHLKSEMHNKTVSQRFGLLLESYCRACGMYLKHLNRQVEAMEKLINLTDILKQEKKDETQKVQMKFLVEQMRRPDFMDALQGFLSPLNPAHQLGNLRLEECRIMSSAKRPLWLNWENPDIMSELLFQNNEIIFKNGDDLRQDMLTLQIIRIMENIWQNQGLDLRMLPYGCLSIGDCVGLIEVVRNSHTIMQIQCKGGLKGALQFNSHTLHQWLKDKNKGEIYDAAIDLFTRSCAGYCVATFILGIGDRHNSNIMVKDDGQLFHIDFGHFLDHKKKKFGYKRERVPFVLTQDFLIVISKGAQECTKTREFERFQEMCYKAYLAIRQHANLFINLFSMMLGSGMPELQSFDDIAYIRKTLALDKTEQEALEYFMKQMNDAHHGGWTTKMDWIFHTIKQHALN
PI3Kα, sequence (P27986 whole entry partner): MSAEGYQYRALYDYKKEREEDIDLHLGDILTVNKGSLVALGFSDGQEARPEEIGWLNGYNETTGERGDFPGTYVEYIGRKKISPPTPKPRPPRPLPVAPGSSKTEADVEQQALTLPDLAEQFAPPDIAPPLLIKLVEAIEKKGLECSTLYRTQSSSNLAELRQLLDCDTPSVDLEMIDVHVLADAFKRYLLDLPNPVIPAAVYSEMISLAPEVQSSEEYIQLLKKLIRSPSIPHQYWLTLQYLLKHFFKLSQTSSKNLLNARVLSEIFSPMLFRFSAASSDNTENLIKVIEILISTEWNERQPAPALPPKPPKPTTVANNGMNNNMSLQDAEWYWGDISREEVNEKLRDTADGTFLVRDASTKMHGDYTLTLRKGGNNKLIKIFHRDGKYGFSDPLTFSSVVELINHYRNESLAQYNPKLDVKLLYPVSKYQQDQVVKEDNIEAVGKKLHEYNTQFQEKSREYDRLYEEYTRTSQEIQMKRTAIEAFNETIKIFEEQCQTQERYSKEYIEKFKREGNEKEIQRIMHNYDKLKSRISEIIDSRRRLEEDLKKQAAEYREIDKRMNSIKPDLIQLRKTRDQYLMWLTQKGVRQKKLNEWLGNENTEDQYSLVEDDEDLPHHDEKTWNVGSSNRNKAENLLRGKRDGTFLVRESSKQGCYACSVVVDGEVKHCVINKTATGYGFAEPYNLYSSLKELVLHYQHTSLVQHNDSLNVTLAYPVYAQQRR

| SMILES | PI3Ka IC50 | IC50 (read-out: PI3Ka IC50) |
| --- | --- | --- |
| Nc1ncc(-c2cc(N3CCOCC3)cc(S(=O)(=O)c3ccc4ccccc4c3)c2)cn1 [Compound 9, 5-(3-morpholino-5-(naphthalen-2-ylsulfonyl)phenyl)pyrimidin-2-amine] | 1500 nM |  |
| Nc1cc(C(F)(F)F)c(-c2cc(N3CCOCC3)cc(S(=O)(=O)c3ccccc3)c2)cn1 [Compound 6, 5-(3-morpholino-5-(phenylsulfonyl)phenyl)-4-(trifluoromethyl)pyridin-2-amine] | 3800 nM |  |
| Nc1ncc(-c2cc(N3CCOCC3)cc(S(=O)(=O)C3CN(C4CCOCC4)C3)c2)cn1 [Compound 66, 5-(3-morpholino-5-((1-(tetrahydro-2H-pyran-4-yl)azetidin-3-yl)sulfonyl)phenyl)pyrimidin-2-amine] | 1300 nM |  |
| Nc1ncc(-c2cc(S(=O)(=O)C3COc4ccccc43)cc(N3CCOCC3)n2)cn1 (stereo not drawn) [Compound 147, 5-(4-((2,3-dihydrobenzofuran-3-yl)sulfonyl)-6-morpholinopyridin-2-yl)pyrimidin-2-amine] | 7 nM |  |
| COc1nc(N)ccc1-c1cc(N2CCOCC2)cc(S(=O)(=O)Cc2ccc(F)cc2)c1 [Compound 44, 5-(3-((4-fluorobenzyl)sulfonyl)-5-morpholinophenyl)-6-methoxypyridin-2-amine] | 13000 nM |  |
| Nc1ncc(-c2cc(S(=O)(=O)C3CCOc4ccccc43)cc(N3CCOCC3)n2)cn1 (single isomer, unassigned; (+)) [(+) 143, 5-(4-(chroman-4-ylsulfonyl)-6-morpholinopyridin-2-yl)pyrimidin-2-amine] |  | 4.5 nM |
| Nc1ncc(-c2cc(N3CCOCC3)cc(S(=O)(=O)Cc3ccccc3)c2)c(C(F)(F)F)n1 [Compound 33, 5-(3-(benzylsulfonyl)-5-morpholinophenyl)-4-(trifluoromethyl)pyrimidin-2-amine] | 980 nM |  |
| CC(C)N1CCC(S(=O)(=O)c2cc(-c3cnc(N)nc3)cc(N3CCOCC3)c2)C1.Cl (stereo not drawn) [Compound 89, 5-(3-((1-isopropylpyrrolidin-3-yl)sulfonyl)-5-morpholinophenyl)pyrimidin-2-amine hydrochloride] | 2500 nM |  |
| Nc1ncc(-c2cc(N3CCOCC3)cc(S(=O)(=O)C3CN(Cc4ccc(F)cc4)C3)c2)cn1 [Compound 80, 5-(3-((1-(4-fluorobenzyl)azetidin-3-yl)sulfonyl)-5-morpholinophenyl)pyrimidin-2-amine] | 660 nM |  |
| Nc1ncc(-c2cc(S(=O)(=O)[C@@H]3CCOC3)cc(N3CCOCC3)n2)cn1 [Compound 142b, (R)-5-(6-morpholino-4-((tetrahydrofuran-3-yl)sulfonyl)pyridin-2-yl)pyrimidin-2-amine] | 6.8 nM |  |
| Nc1ncc(-c2cc(N3CCOCC3)cc(S(=O)(=O)c3ccc(N4CCOCC4)cc3)c2)cn1 [Compound 36, 5-(3-morpholino-5-((4-morpholinophenyl)sulfonyl)phenyl)pyrimidin-2-amine] | 1100 nM |  |
| O=S(=O)(c1ccccc1)c1cc(-c2cnc(NC3CC3)nc2)nc(N2CCOCC2)c1 [Compound 146, N-cyclopropyl-5-(6-morpholino-4-(phenylsulfonyl)pyridin-2-yl)pyrimidin-2-amine] | 370 nM |  |
| Nc1ncc(-c2cc(S(=O)(=O)c3ccccc3)cc(N3CC4CCC(C3)O4)n2)cn1 [Compound 151, 5-(6-(8-oxa-3-azabicyclo[3.2.1]octan-3-yl)-4-(phenylsulfonyl)pyridin-2-yl)pyrimidin-2-amine] | 830 nM |  |
| CCNC(=O)Nc1ccc(-c2cc(N3CCOCC3)cc(S(=O)(=O)Cc3ccc(F)cc3)c2)cc1OC [Compound 40, 1-ethyl-3-(3′-((4-fluorobenzyl)sulfonyl)-3-methoxy-5′-morpholino-[1,1′-biphenyl]-4-yl)urea] | 6500 nM |  |
| CN(C)c1ncc(-c2cc(N3CCOCC3)cc(S(=O)(=O)c3ccccc3)c2)cn1 [Compound 4, N,N-dimethyl-5-(3-morpholino-5-(phenylsulfonyl)phenyl)pyrimidin-2-amine] | 11000 nM |  |
| CC(C)N1CC(S(=O)(=O)c2cc(-c3cnc(N)nc3)cc(N3CCOCC3)c2)C1 [Compound 65, 5-(3-((1-isopropylazetidin-3-yl)sulfonyl)-5-morpholinophenyl)pyrimidin-2-amine] | 870 nM |  |
| Nc1ncc(-c2cc(N3CCOCC3)cc(S(=O)(=O)c3ccccc3)c2)c(C(F)(F)F)n1 [Compound 3, 5-(3-morpholino-5-(phenylsulfonyl)phenyl)-4-(trifluoromethyl)pyrimidin-2-amine] | 2000 nM |  |

| SMILES | PI3Ka IC50 | IC50 (read-out: PI3Ka IC50) |
| --- | --- | --- |
| Nc1ncc(-c2cc(S(=O)(=O)C3CCOc4ccccc43)cc(N3CCOCC3)n2)cn1 (racemic) [Compound 143, 5-(4-(chroman-4-ylsulfonyl)-6-morpholinopyridin-2-yl)pyrimidin-2-amine] | 1.7 nM |  |
| CNc1ncc(-c2cc(N3CCOCC3)cc(S(=O)(=O)Cc3ccccc3)c2)cn1 [Compound 31, 5-(3-(benzylsulfonyl)-5-morpholinophenyl)-N-methylpyrimidin-2-amine] | 660 nM |  |
| Nc1ccc(-c2cc(N3CCOCC3)cc(S(=O)(=O)[C@@H]3CCOC3)c2)c(C(F)(F)F)n1 [Compound 105, (R)-5-(3-morpholino-5-((tetrahydrofuran-3-yl)sulfonyl)phenyl)-6-(trifluoromethyl)pyridin-2-amine] | 1700 nM |  |
| Nc1ncc(-c2cc(S(=O)(=O)C3CCOCC3)cc(N3CCOCC3)n2)cn1 [Compound 148, 5-(6-morpholino-4-((tetrahydro-2H-pyran-4-yl)sulfonyl)pyridin-2-yl)pyrimidin-2-amine] | 13 nM |  |
| C[C@@H]1CC(S(=O)(=O)c2cc(-c3cnc(N)nc3)cc(N3CCOCC3)c2)C[C@H](C)O1 (stereo partly drawn) [Compound 85, 5-(3-(((2R,6S)-2,6-dimethyltetrahydro-2H-pyran-4-yl)sulfonyl)-5-morpholinophenyl)pyrimidin-2-amine] | 1000 nM |  |
| O=S(=O)(Cc1ccccc1)c1cc(-c2cnc(NC3CC3)nc2)cc(N2CCOCC2)c1 [Compound 104, 5-(3-(benzylsulfonyl)-5-morpholinophenyl)-N-cyclopropylpyrimidin-2-amine] | 1300 nM |  |
| O=C1COc2cc(-c3cc(N4CCOCC4)cc(S(=O)(=O)Cc4ccc(F)cc4)c3)ccc2N1 [Compound 42, 7-(3-((4-fluorobenzyl)sulfonyl)-5-morpholinophenyl)-2H-benzo[b][1,4]oxazin-3(4H)-one] | 4700 nM |  |
| CC(C)(C)OC(=O)N1CCN(c2cc(-c3cnc(N)nc3)cc(S(=O)(=O)c3ccccc3)c2)CC1 [Compound 24, tert-butyl 4-(3-(2-aminopyrimidin-5-yl)-5-(phenylsulfonyl)phenyl)piperazine-1-carboxylate] | 21000 nM |  |
| CC(C)(O)CNc1ccc(S(=O)(=O)c2cc(-c3cnc(N)nc3)cc(N3CCOCC3)c2)cc1 [Compound 37, 1-((4-((3-(2-aminopyrimidin-5-yl)-5-morpholinophenyl)sulfonyl)phenyl)amino)-2-methylpropan-2-ol] | 2000 nM |  |
| CC(C)(C)OC(=O)N1CCC(N2CC(S(=O)(=O)c3cc(-c4cnc(N)nc4)cc(N4CCOCC4)c3)C2)CC1 [Compound 67, tert-butyl 4-(3-((3-(2-aminopyrimidin-5-yl)-5-morpholinophenyl)sulfonyl)azetidin-1-yl)piperidine-1-carboxylate] | 800 nM |  |
| O=S(=O)(Cc1ccc(F)cc1)c1cc(-c2cccc(OC(F)(F)F)c2)cc(N2CCOCC2)c1 [Compound 46, 4-(5-((4-fluorobenzyl)sulfonyl)-3′-(trifluoromethoxy)-[1,1′-biphenyl]-3-yl)morpholine] | 19000 nM |  |
| CC(=O)Nc1ncc(-c2cc(S(=O)(=O)c3ccccc3)cc(N3CCOCC3)n2)cn1 [Compound 145, N-(5-(6-morpholino-4-(phenylsulfonyl)pyridin-2-yl)pyrimidin-2-yl)acetamide] | 390 nM |  |
| Nc1ccc(-c2cc(N3CCOCC3)cc(S(=O)(=O)Cc3ccc(F)cc3F)c2)nc1 [Compound 98, -(3-((2,4-difluorobenzyl)sulfonyl)-5-morpholinophenyl)pyridin-3-amine] | 12000 nM |  |
| Nc1cc(C(F)(F)F)c(-c2cc(S(=O)(=O)c3ccccc3)cc(N3CCOCC3)n2)cn1 [Compound 144, 6-morpholino-4-(phenylsulfonyl)-4′-(trifluoromethyl)-[2,3′-bipyridin]-6′-amine] | 390 nM |  |
| O=S(=O)(Cc1ccc(F)cc1)c1cc(-c2ccc3c(c2)OCCN3)cc(N2CCOCC2)c1 [Compound 45, 7-(3-((4-fluorobenzyl)sulfonyl)-5-morpholinophenyl)-3,4-dihydro-2H-benzo[b][1,4]oxazine] | 5900 nM |  |
| CC(C)(C)OC(=O)N1CC(S(=O)(=O)c2cc(-c3cnc(N)cn3)cc(N3CCOCC3)c2)C1 [Compound 69, tert-butyl 3-((3-(5-aminopyrazin-2-yl)-5-morpholinophenyl)sulfonyl)azetidine-1-carboxylate] | 540 nM |  |
